Reference: US8399683B2 (TetraLogic Pharmaceuticals, priority 2008, dated 2013)

Experiments:
[1] = molecular target: T1, XIAP BIR-3 (Homo sapiens, UniProt P98170); assay: Fluorescence polarization binding affinity to XIAP BIR-3 (competition with AbuRPF-K(5-Fam)-NH2); conditions: 5 nM labeled peptide, 40 nM BIR3, 15 min at RT, pH 7.5; reported as ranges
T1 construct: 40 nM of the respective IAP BIR3
Method in brief: (§1)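 Test peptides at varied concentrations competed with 5 nM fluorescent Smac-mimetic tracer for 40 nM BIR3 domain, 15 min at RT in 0.1M potassium phosphate pH 7.5 with […] bovine g-globulin. Polarization (mP) read at 485/520 nm; KD reported in bins (A=<0.1 μM, B=0.1–1 μM, C>1–10 μM, D=>10 μM).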

[2] = molecular target: cIAP-1 BIR-3 (Homo sapiens, UniProt Q13490); assay: Fluorescence polarization binding affinity to cIAP-1 BIR-3 (competition with AbuRPF-K(5-Fam)-NH2); conditions: 5 nM labeled peptide, 40 nM BIR3, 15 min at RT, pH 7.5; reported as ranges; read-out: KD (c-IAP-1 BIR3)
Chain of cIAP-1 BIR-3 (Q13490 266-352 limits assumed): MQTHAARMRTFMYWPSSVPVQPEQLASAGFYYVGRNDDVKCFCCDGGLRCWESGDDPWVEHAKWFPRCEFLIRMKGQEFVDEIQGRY
Method in brief: as §1

[3] = test system: SK-OV-3 cells; assay: Growth inhibition of ovarian cancer cell line SK-OV-3 (MTT assay, cell survival); assay type: cell-based; conditions: Homo sapiens, drug concentration that results in 50% cell survival, 72 hrs incubation, reported as ranges
Method in brief: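 After overnight seeding in McCoy's medium with 10% FBS, SK-OV-3 cells were exposed to compound at 0.003-10 μM for 72 hrs at 37° C. MTT was then added for 3 h, with DMSO solubilization and OD read at 535 nm. CC50 is the concentration giving 50% survival relative to untreated control, reported as ranges.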

T1 sequence (P98170 241-356 limits assumed): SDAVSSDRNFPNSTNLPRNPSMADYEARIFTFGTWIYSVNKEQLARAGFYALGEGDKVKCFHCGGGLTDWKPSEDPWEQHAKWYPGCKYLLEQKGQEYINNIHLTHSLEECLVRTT

Structure (SMILES) | Kd [1] [nM] | Kd [2] [nM] | CC50 [3] [nM]
CN[C@@H](C)C(=O)N[C@H](C(=O)N1CC[C@@H]2[C@H]1[C@@H](c1c[nH]c3cc(F)ccc13)CN2C(C)=O)C1CCCCC1 [Example 59, N-{2-[4-Acetyl-6-(6-fluoro-1H-indol-3-yl)-hexahydro-pyrrolo[3,2-b]pyrrol-1-yl]-1-cyclohexyl-2-oxo-ethyl}-2-methylamino-propionamide] | < 100 | < 100 | < 100
CC[C@H](NC(=O)[C@H](C)NC)C(=O)N1CC[C@@H]2[C@H]1[C@@H](c1c[nH]c3cc(F)ccc13)CN2C(C)=O [Example 60, N-{1-[4-Acetyl-6-(6-fluoro-1H-indol-3-yl)-hexahydro-pyrrolo[3,2-b]pyrrole-1-carbonyl]-propyl}-2-methylamino-propionamide] | < 100 | < 100 | < 100
CN[C@@H](C)C(=O)N[C@H](C(=O)N1CC[C@@H]2[C@H]1[C@@H](c1c[nH]c3cc(F)ccc13)CN2C(C)=O)C(C)C [Example 61, N-{1-[4-Acetyl-6-(6-fluoro-1H-indol-3-yl)-hexahydro-pyrrolo[3,2-b]pyrrole-1-carbonyl]-2-methyl-propyl}-2-methylamino-propionamide] | < 100 | < 100 | < 100
CN[C@@H](C)C(=O)N[C@H](C(=O)N1CC[C@@H]2[C@H]1[C@@H](c1c[nH]c3cc(F)ccc13)CN2C(C)=O)C(C)(C)C [Example 62, N-{1-[4-Acetyl-6-(6-fluoro-1H-indol-3-yl)-hexahydro-pyrrolo[3,2-b]pyrrole-1-carbonyl]-2,2-dimethyl-propyl}-2-methylamino-propionamide] | < 100 | < 100 | < 100
CN[C@@H](C)C(=O)N[C@@H](CO)C(=O)N1CC[C@@H]2[C@H]1[C@@H](c1c[nH]c3cc(F)ccc13)CN2C(C)=O [Example 63, N-{2-[4-Acetyl-6-(6-fluoro-1H-indol-3-yl)-hexahydro-pyrrolo[3,2-b]pyrrol-1-yl]-1-hydroxymethyl-2-oxo-ethyl}-2-methylamino-propionamide] | < 100 | < 100 | 1000 to 10000
CN[C@@H](C)C(=O)N[C@@H](COC)C(=O)N1CC[C@@H]2[C@H]1[C@@H](c1c[nH]c3cc(F)ccc13)CN2C(C)=O [Example 64, N-{2-[4-Acetyl-6-(6-fluoro-1H-indol-3-yl)-hexahydro-pyrrolo[3,2-b]pyrrol-1-yl]-1-methoxymethyl-2-oxo-ethyl}-2-methylamino-propionamide] | 100 to 1000 | < 100 | 100 to 1000
CN[C@@H](C)C(=O)N[C@H](C(=O)N1CC[C@@H]2[C@H]1[C@@H](c1c[nH]c3cc(F)ccc13)CN2C(C)=O)[C@@H](C)O [Example 65, N-{1-[4-Acetyl-6-(6-fluoro-1H-indol-3-yl)-hexahydro-pyrrolo[3,2-b]pyrrole-1-carbonyl]-2-hydroxy-propyl}-2-methylamino-propionamide] | < 100 | < 100 | 100 to 1000
CN[C@@H](C)C(=O)N[C@H](C(=O)N1CC[C@@H]2[C@H]1[C@@H](c1c[nH]c3cc(F)ccc13)CN2C(C)=O)[C@@H](C)OC [Example 66, N-{1-[4-Acetyl-6-(6-fluoro-1H-indol-3-yl)-hexahydro-pyrrolo[3,2-b]pyrrole-1-carbonyl]-2-methoxy-propyl}-2-methylamino-propionamide] | < 100 | < 100 | < 100
CC[C@H](NC(=O)[C@H](C)NC)C(=O)N1CC[C@@H]2[C@H]1[C@@H](c1c[nH]c3ccc(F)cc13)CN2C(C)=O [Example 67, N-{1-[4-Acetyl-6-(5-fluoro-1H-indol-3-yl)-hexahydro-pyrrolo[3,2-b]pyrrole-1-carbonyl]-propyl}-2-methylamino-propionamide] | < 100 | < 100 | 100 to 1000
CN[C@@H](C)C(=O)N[C@H](C(=O)N1CC[C@@H]2[C@H]1[C@@H](c1c[nH]c3ccc(F)cc13)CN2C(C)=O)C(C)C [Example 68, N-{1-[4-Acetyl-6-(5-fluoro-1H-indol-3-yl)-hexahydro-pyrrolo[3,2-b]pyrrole-1-carbonyl]-2-methyl-propyl}-2-methylamino-propionamide] | < 100 | < 100 | < 100
CN[C@@H](C)C(=O)N[C@H](C(=O)N1CC[C@@H]2[C@H]1[C@@H](c1c[nH]c3ccc(F)cc13)CN2C(C)=O)C(C)(C)C [Example 69, N-{1-[4-Acetyl-6-(5-fluoro-1H-indol-3-yl)-hexahydro-pyrrolo[3,2-b]pyrrole-1-carbonyl]-2,2-dimethyl-propyl}-2-methylamino-propionamide] | < 100 | < 100 | < 100
CN[C@@H](C)C(=O)N[C@H](C(=O)N1CC[C@@H]2[C@H]1[C@@H](c1c[nH]c3ccc(F)cc13)CN2C(C)=O)C1CCCCC1 [Example 70, N-{2-[4-Acetyl-6-(5-fluoro-1H-indol-3-yl)-hexahydro-pyrrolo[3,2-b]pyrrol-1-yl]-1-cyclohexyl-2-oxo-ethyl}-2-methylamino-propionamide] | < 100 | < 100 | < 100
CN[C@@H](C)C(=O)N[C@H](C(=O)N1CC[C@@H]2[C@H]1[C@@H](c1c[nH]c3ccc(F)cc13)CN2C(C)=O)[C@@H](C)OC [Example 71, N-{1-[4-Acetyl-6-(5-fluoro-1H-indol-3-yl)-hexahydro-pyrrolo[3,2-b]pyrrole-1-carbonyl]-2-methoxy-propyl}-2-methylamino-propionamide] | < 100 | < 100 | < 100
CN[C@@H](C)C(=O)N[C@@H](COC)C(=O)N1CC[C@@H]2[C@H]1[C@@H](c1c[nH]c3ccc(F)cc13)CN2C(C)=O [Example 72, N-{2-[4-Acetyl-6-(5-fluoro-1H-indol-3-yl)-hexahydro-pyrrolo[3,2-b]pyrrol-1-yl]-1-methoxymethyl-2-oxo-ethyl}-2-methylamino-propionamide] | < 100 | < 100 | 1000 to 10000
CN[C@@H](C)C(=O)N[C@@H](CO)C(=O)N1CC[C@@H]2[C@H]1[C@@H](c1c[nH]c3ccc(F)cc13)CN2C(C)=O [Example 73, N-{2-[4-Acetyl-6-(5-fluoro-1H-indol-3-yl)-hexahydro-pyrrolo[3,2-b]pyrrol-1-yl]-1-hydroxymethyl-2-oxo-ethyl}-2-methylamino-propionamide] | < 100 | < 100 | 1000 to 10000
CN[C@@H](C)C(=O)N[C@H](C(=O)N1CC[C@@H]2[C@H]1[C@@H](c1c[nH]c3ccc(F)cc13)CN2C(C)=O)[C@@H](C)O [Example 74, N-{1-[4-Acetyl-6-(5-fluoro-1H-indol-3-yl)-hexahydro-pyrrolo[3,2-b]pyrrole-1-carbonyl]-2-hydroxy-propyl}-2-methylamino-propionamide] | < 100 | < 100 | 100 to 1000
CN[C@@H](C)C(=O)N[C@H](C(=O)N1CC[C@@H]2[C@H]1[C@@H](c1c[nH]c3cc(F)ccc13)CN2c1ncccn1)C1CCCCC1 [Example 75, N-{1-Cyclohexyl-2-[6-(6-fluoro-1H-indol-3-yl)-4-pyrimidin-2-yl-hexahydro-pyrrolo[3,2-b]pyrrol-1-yl]-2-oxo-ethyl}-2-methylamino-propionamide] | < 100 | < 100 | < 100
CN[C@@H](C)C(=O)N[C@H](C(=O)N1CC[C@@H]2[C@H]1[C@@H](c1c[nH]c3cc(F)ccc13)CN2c1nccc(Cl)n1)C1CCCCC1 [Example 76, N-{2-[4-(4-Chloro-pyrimidin-2-yl)-6-(6-fluoro-1H-indol-3-yl)-hexahydro-pyrrolo[3,2-b]pyrrol-1-yl]-1-cyclohexyl-2-oxo-ethyl}-2-methylamino-propionamide] | < 100 | < 100 | < 100
CN[C@@H](C)C(=O)N[C@H](C(=O)N1CC[C@@H]2[C@H]1[C@@H](c1c[nH]c3cc(F)ccc13)CN2c1ncccn1)C(C)C [Example 77, N-{1-[6-(6-Fluoro-1H-indol-3-yl)-4-pyrimidin-2-yl-hexahydro-pyrrolo[3,2-b]pyrrole-1-carbonyl]-2-methyl-propyl}-2-methylamino-propionamide] | < 100 | < 100 | < 100
CC[C@H](NC(=O)[C@H](C)NC)C(=O)N1CC[C@@H]2[C@H]1[C@@H](c1c[nH]c3cc(F)ccc13)CN2c1ncccn1 [Example 78, N-{1-[6-(6-Fluoro-1H-indol-3-yl)-4-pyrimidin-2-yl-hexahydro-pyrrolo[3,2-b]pyrrole-1-carbonyl]-propyl}-2-methylamino-propionamide] | 100 to 1000 | < 100 | < 100
CN[C@@H](C)C(=O)N[C@H](C(=O)N1CC[C@@H]2[C@H]1[C@@H](c1c[nH]c3cc(F)ccc13)CN2c1ncccn1)C(C)(C)C [Example 79, N-{1-[6-(6-Fluoro-1H-indol-3-yl)-4-pyrimidin-2-yl-hexahydro-pyrrolo[3,2-b]pyrrole-1-carbonyl]-2,2-dimethyl-propyl}-2-methylamino-propionamide] | < 100 | < 100 | < 100
